Measured values: patent publication US11571459B2, “Methods for treating cancer using PS-targeting antibodies with immuno-oncology agents” (ONCXERNA THERAPEUTICS, INC., priority 2017, dated 2023)

Legend:
[1] = test system: previously treated non-squamous NSCLC
Method: The primary objective of this study was to compare the ORR (CR+PR) among the treatment arms. Secondary objectives included comparing PFS, DR, OS, safety and PK.
Additional blood draws were performed for these patients during Cycles 1 and 2 at specified time points.
Samples from the NSCLC Phase II trial of Example IX (PPHM 0902) were tested using the functional β2GPI assay of Example XII.

[2] = test system: previously-treated Stage IIIb/IV non-squamous NSCLC; conditions: in vivo
Description: (§1) This global, double-blind Phase III trial was initiated in 2012. Selection criteria were for patients with Stage IIIb/IV non-squamous NSCLC who progressed on platinum-doublet chemotherapy (should have progressed on appropriate targeted therapy if known EGFR or ALK mutation), with ECOG PS 0-1 and prior immunotherapy allowed (ECOG is the performance status scale defined by the Eastern Cooperative Oncology Group). […] The primary endpoint was overall survival (OS) and secondary endpoints included objective response rate (Independent Central Review, ICR), progression-free survival (ICR), safety, PK, Quality of Life (LCSS) and exploratory biomarkers, including immune correlates.
(§2) OS was analyzed by VeriStrat subgroups using Kaplan-Meier statistical methods.
(§3) A single cutoff method was first used to assess the patient β2GPI data.
(§4) The initial analyses described above prompted further, extensive analyses of the data in 592 evaluable patients. These analyses used a two cutoff method (Klein & Moeschberger, 2003).
(§5) Archival tissue obtained at the time of diagnosis was requested, but not required, in the Phase III trial of Example X. Formalin-fixed paraffin-embedded (FFPE) slides were stained with antibodies for a panel of lymphoid (or tumor) cell markers, as described in Feng et al., 2015: CD3+, CD8+, FoxP3+, PD-L1+, CD163+ and CK+ (cytokeratin, an epithelial carcinoma marker) using a mutliplex (6-plex) quantitative immunohistochemistry (IHC) assay (OPAL®, PerkinElmer, Waltham, Mass., USA) and using DAPI. The PD-L1 antibody used was the rabbit anti-PD-L1 antibody termed E1L3N® XP® (Cell Signaling Technology, (CST), Danvers, Mass., Catalogue #13684; Mahoney et al., 2015). Baseline PD-L1 expression was retrospectively scored on tumor cells (TC, i.e., CK+) and PD-L1 expressing tumor cells were classified according to their percentage within the total number of tumor cells using established assays and classifications (Fehrenbacher et al., 2016), as follows: TC3≥50%; TC2≥5% and ≤50%; TC1≥1% and <5%; and TC0<1%. Cox regression models for PD-L1 IHC subgroup populations were used for correlation with OS.
(§6) Kaplan-Meier statistical methods and Cox proportional hazard models were utilized to evaluate and contrast the correlation of peripheral (and intratumoral) IFNγ levels with OS based on a data cut from the Phase III trial (Example X) dated Feb.

[3] = test system: previously-treated Stage IIIb/IV non-squamous NSCLC; assay: Phase III trial of bavituximab plus docetaxel in NSCLC
Description: as §1, §2, §3, §4, §5, §6

PS [4] = assay: ELISA binding to PS-coated plates; conditions: phospholipid-coated ELISA plates
Method: The 3G4 antibody was produced by immunizing mice with autologous, PS-positive endothelial cells, as reported in Ran et al., 2005. The 3G4 antibody was tested for binding to PS in a standard ELISA in the presence and absence of serum, and was initially characterized as being “serum-independent”, i.e., an antibody that binds to PS in the absence of serum.
In a follow-on study, the binding of the 2aG4 antibody to PS was tested in an ELISA in the presence of varying concentrations of human β2GPI.
These included binding to PS in ELISAs, FACS analyses using PS-positive cells and functional assays in the form of an NFAT surrogate ADCC bioassay (Larson et al., 2013).

[5] = ELISA binding to neutral phospholipids; conditions: standard ELISA
β2GPI = biological target: T1, β2GPI (Homo sapiens, UniProt P02749); assay: Antibody binding to β2GPI (domain mapping)
T1 sequence (P02749 20-345): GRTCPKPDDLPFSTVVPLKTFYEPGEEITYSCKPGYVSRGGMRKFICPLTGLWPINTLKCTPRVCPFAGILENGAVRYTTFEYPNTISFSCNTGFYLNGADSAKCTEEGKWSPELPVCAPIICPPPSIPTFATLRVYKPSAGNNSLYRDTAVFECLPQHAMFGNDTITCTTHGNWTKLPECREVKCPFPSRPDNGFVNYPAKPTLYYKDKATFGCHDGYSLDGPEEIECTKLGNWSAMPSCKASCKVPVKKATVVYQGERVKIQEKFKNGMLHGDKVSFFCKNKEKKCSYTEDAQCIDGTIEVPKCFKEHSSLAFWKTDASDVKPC
Description: In summary, it was shown that the 3G4 antibody binds to β2GPI at domain II and that the lipid binding region of β2GPI domain V is required for co-binding of 3G4 (and ch3G4) and β2GPI to PS exposed on cells. […] Accordingly, antibody and β2GPI co-bind to PS exposed on the outer surfaces of membranes, such as occurs on activated endothelial cells, tumor vascular endothelial cells and tumor cells, as well as on virally infected cells.

[6] = test system: ABAE cells with exposed PS; assay: Binding of antibody-β2GPI complexes to PS on cells; assay type: cell-based; conditions: first study
Method: In analyzing the β2GPI levels required for binding of 3G4-β2GPI complexes to PS on cells, the maximum relative binding in a first study occurred at an antibody concentration of 80 nM, which is a β2GPI to antibody ratio of only 0.5.

PS [7] = conditions: in the presence of serum; cited from earlier work
[8] = irrespective of the presence of serum; cited from earlier work
tumors = conditions: syngeneic and xenogeneic tumor models; cited from earlier work
[9] = 70% of targeted OS events reached
[10] = about 85% of targeted OS events
[11] = about 85% of targeted OS events, vs docetaxel alone
[12] = functional β2GPI ≥200 μg/mL, 578 evaluable patients
[13] = functional β2GPI ≥200 μg/mL, 592 evaluable patients

## bavituximab plus docetaxel: treatment arm: weekly 3 mg/kg bavituximab in combination with docetaxel
[1]; 3 mg/kg
  HR for OS versus combined arm: 0.66
[1]; ITT, all with docetaxel, Bavituximab arm 3 mg/kg
  Overall Survival, Median: 11.7 Months
[1]; bavituximab 3 mg/kg, combined control = placebo or 1 mg/kg bavituximab, all with docetaxel
  Grade 5 (fatal) events: 5.0%
[2]
  Grade 3 or higher adverse events: 68%
[3]; 12 months follow-up, about 85% of targeted OS events
  median OS: 10.5 months
[3]; [9]
  mOS: 10.7 months
  median PFS: 4.1 months
[3]; IFNγ high, no subsequent IO
  mOS: 9.0 months
[3]; IFNγ high, no subsequent IO, vs docetaxel alone
  HR: 1.14
[3]; IFNγ high, received subsequent IO
  mOS: 13.9 months
[3]; IFNγ high, received subsequent IO, vs docetaxel alone
  HR: 1.0
[3]; IFNγ low, no subsequent IO
  mOS: 10.5 months
[3]; IFNγ low, no subsequent IO, vs docetaxel alone
  HR: 1.17
[3]; IFNγ low, received subsequent IO
  mOS: not reached
[3]; IFNγ low, received subsequent IO, vs docetaxel alone
  HR: 0.24
[3]; VS Good patients (VeriStrat)
  mOS: 11.2 months
[3]; VS Poor patients (VeriStrat)
  mOS: 5.8 months
[3]; [10]
  ORR: 15%
  PFS: 4.2 months
[3]; [11]
  HR for OS: 1.06
  HR for PFS: 1.02
[3]; functional β2GPI 200-240 μg/mL
  HR for death: 0.67
  improvement in mOS versus control group: 5.5 month
  mOS: 13.2 months
[3]; [12]
  HR for death: 0.77
  mOS: 11.9 months
[3]; [13]
  HR for death: 0.81
  mOS: 11.9 months
[3]; higher PD-L1 expression (TC1/2/3, ≥1%)
  mOS: 6.0 months
[3]; in vivo
  HR, PD-L1 TC0 versus TC1/2/3 within arm: 0.38
[3]; negative PD-L1 expression (TC0, <1%)
  mOS: 11.5 months
[3]; no subsequent IO, vs docetaxel alone
  HR: 1.16
[3]; patients receiving subsequent IO
  mOS: has yet to be reached
[3]; patients receiving subsequent IO, vs docetaxel alone
  HR: 0.46
[3]; patients who did not receive subsequent IO
  mOS: 9.2 months
[3]; pre-treatment serum IFNγ high (≥ median 0.093 μg/mL)
  mOS: 9.2 months
[3]; pre-treatment serum IFNγ low (< median 0.093 μg/mL)
  mOS: 11.9 months

B1: 3G4: mouse IgG3 monoclonal PS-targeting antibody, hybridoma ATCC PTA 4545 (antibody, V domains shown)
VH: EVQLQQSGPELEKPGASVKLSCKASGYSFTGYNMNWVKQSHGKSLEWIGHIDPYYGDTSYNQKFRGKATLTVDKSSSTAYMQLKSLTSEDSAVYYCVKGGYYGHWYFDVWGAGTTVTVSSATTTAPSVYPLVP
VL: DIQMTQSPSSLSASLGERVSLTCRASQDIGSSLNWLQQGPDGTIKRLIYATSSLDSGVPKRFSGSRSGSDYSLTISSLESEDFVDYYCLQYVSSPPTFGAGTKLELKRADAAPTVFIFGRIP
PS [4]
  binding to phospholipids in standard ELISA: bound to PS, CL, PI (phosphatidylinositol), PA (phosphatidic acid) and PG (phosphatidylglycerol)
[5]
  reaction with neutral phospholipids, PC and SM: did not react
β2GPI
  β2GPI domain bound: bind to β2GPI at domain II
[6]
  antibody concentration at maximum relative binding to PS on cells: 80 nM
  molar ratio of β2GPI to antibody for optimal antibody binding: between 0.125, 0.5 and 2
[6]; antibody 80 nM
  β2GPI to antibody ratio at maximum relative binding: 0.5
PS [7]
  binding to anionic phospholipids (PS, PI, PA, PG, CL): bind strongly to anionic phospholipids
[8]
  binding to neutral phospholipids PC, SM or PE: no detectable binding
tumors
  anti-tumor effects: caused tumor vascular injury, localized thrombosis, tumor necrosis and retarded tumor growth
  toxicity: no evidence of toxicity
